ChEMBL document CHEMBL3758159, “Polycyclic amines as chloroquine resistance modulating agents in Plasmodium falciparum” (Bioorg Med Chem Lett, 2016)
pIC50: −log10 of the molar value. Activity calls are given as the source filed them. No cut-off for these calls is given here.

Key:
CHO = assay: Cytotoxicity against CHO cells by MTT assay; format: cell-based; conditions: Cricetulus griseus
Plasmodium falciparum [1] = assay: Antiplasmodial activity against chloroquine sensitive Plasmodium falciparum NF54 by spectroscopic method; format: functional, organism-based
[2] = Selectivity index, ratio of IC50 for CHO cells to IC50 for chloroquine sensitive Plasmodium falciparum NF54; format: toxicity, cell-based; conditions: hamster, read-out: Ratio IC50
Rattus norvegicus = species: Rattus norvegicus; assay: Inhibition of voltage-gated calcium channel in Wistar rat synaptoneurosomes at 100 uM after 30 mins by fluorescent ratiometric indicator method
[3] = system: Plasmodium falciparum Dd2; assay: Inhibition of voltage-gated calcium channel in Plasmodium flaciparum Dd2 cells assessed as potentiation of choloroquine induced antimalarial activity by measuring ratio of chloroquine IC50 in presence to absence of compound at 1 uM
[4] = Inhibition of voltage-gated calcium channel in Wistar rat synaptoneurosomes after 30 mins by fluorescent ratiometric indicator method
[5] = system: Plasmodium falciparum NF54; assay: Inhibition of voltage-gated calcium channel in Plasmodium flaciparum NF54 cells assessed as potentiation of choloroquine induced antimalarial activity by measuring chloroquine IC50 in presence of compound at 1 uM
[6] = system: Plasmodium falciparum Dd2; assay: Inhibition of voltage-gated calcium channel in Plasmodium flaciparum Dd2 cells assessed as reversal of choloroquine resistance at 1 uM relative to control; design: scale not given: the % may be the effect or the level left
Plasmodium falciparum [7] = assay: Antiplasmodial activity against multidrug resistant Plasmodium falciparum Dd2 by spectroscopic method; format: functional, organism-based
[8] = system: Plasmodium falciparum Dd2; assay: Inhibition of voltage-gated calcium channel in Plasmodium flaciparum Dd2 cells assessed as reversal of choloroquine resistance at 0.5 uM relative to control; design: scale not given: the % may be the effect or the level left
[9] = system: Plasmodium falciparum Dd2; assay: Inhibition of voltage-gated calcium channel in Plasmodium flaciparum Dd2 cells assessed as reversal of choloroquine resistance at 0.8 uM relative to control; design: scale not given: the % may be the effect or the level left

| SMILES | pIC50 (CHO) | pIC50 (Plasmodium falciparum [1]) | selectivity ratio [2] | inhibition (Rattus norvegicus) [%] | Ratio IC50 [3] | pIC50 [4] | Activity [5] | Activity [6] [%] | pIC50 (Plasmodium falciparum [7]) | Activity [8] [%] | Activity [9] [%] |
| --- | --- | --- | --- | --- | --- | --- | --- | --- | --- | --- | --- |
| CCN(CC)CCCC(C)Nc1ccnc2cc(Cl)ccc12 (stereo unspecified) [CHLOROQUINE] | 4.45 | – | – | – | – | – | – | – | – | – | – |
| c1ccc(CNC23CC4CC(CC(C4)C2)C3)cc1 | < 3.38 | 3.90 | > 3.3 | 40 | – | – | – | – | – | – | – |
| O=C(OCCNC12OC3C4C5CC(C6C5C3C61)C42)c1cccc(/C=C/[N+](=O)[O-])c1 (stereo unspecified) | < 3.60 | 4.58 | > 9.7 | > 95 | 0.55 | 6.01 | inactive | 45 | 4.46 | – | – |
| OC12C3C4CC5C6C4C1C6C(C53)N2CCN1CCN(Cc2ccccc2)CC1 (stereo unspecified) | < 3.58 | 5.04 | > 29.1 | 51 | 0.81 | 4.00 | inactive | 19 | 5.20 | – | – |
| CN(C)c1cccc2cc(S(=O)(=O)NCCN3C4C5C6CC7C8C6C4C8C3(O)C75)ccc12 (stereo unspecified) | 3.92 | 5.42 | 31.7 | > 95 | 0.19 | 6.32 | inactive | 81 | 5.20 | – | – |
| O=[N+]([O-])c1ccc(CNC23CC4CC(CC(C4)C2)C3)cc1 | < 3.46 | 4.13 | > 4.7 | 86 | – | – | – | – | – | – | – |
| N#Cc1c2ccccc2cn1CCCNC12CC3CC(CC(C3)C1)C2 | 5.09 | 5.42 | 2.1 | 54 | 0.58 | 4.00 | inactive | 42 | 5.41 | – | – |
| OC12C3C4CC5C6C4C1C6C(C53)N2Cc1ccccc1 (stereo unspecified) | 4.07 | 5.12 | 11.1 | > 95 | 0.36 | 4.46 | inactive | 64 | 4.88 | – | – |
| O=[N+]([O-])c1ccc(CNC23OC4C5C6CC(C7C6C4C72)C53)cc1 (stereo unspecified) | < 3.49 | 6.14 | > 449 | 48 | 0.65 | – | inactive | 25 | 4.26 | – | – |
| CN(C)c1cccc2c(S(=O)(=O)NCCCNC34CC5CC(CC(C5)C3)C4)cccc12 | 5.13 | 5.55 | 2.6 | > 95 | 0.35 | 6.57 | inactive | 65 | 5.15 | – | – |
| c1ccc(CNC23OC4C5C6CC(C7C6C4C72)C53)cc1 (stereo unspecified) | < 5.00 | < 5.00 | – | 52 | – | 4.07 | inactive | – | < 5.00 | – | – |
| COc1ccc(CNC23CC4CC(CC(C4)C2)C3)cc1 | < 3.43 | 4.40 | > 9.4 | 71 | – | – | – | – | – | – | – |
| COc1ccc(CCN(C)CCCC(C#N)(c2ccc(OC)c(OC)c2)C(C)C)cc1OC (stereo unspecified) | – | – | – | – | 0.27 | – | – | 73 | – | 47 | 63 |
| O=[N+]([O-])c1ccc(NCCCNC23CC4CC(CC(C4)C2)C3)c([N+](=O)[O-])c1 | 5.10 | 5.95 | 7.1 | 12 | – | – | – | – | 4.73 | – | – |
| COCCOC(=O)C1=C(C)NC(C)=C(C(=O)OC(C)C)C1c1cccc([N+](=O)[O-])c1 (stereo unspecified) [NIMODIPINE] | – | – | – | – | – | 8.10 | – | – | – | – | – |
